Article PMC9963659, “Novel 2-Thiouracil-5-Sulfonamide Derivatives: Design, Synthesis, Molecular Docking, and Biological Evaluation as Antioxidants with 15-LOX Inhibition” (Molecules, 2023)
Read-outs that look alike come from different tables or passages of the source.

Assays:
Soybean 15-LOX enzyme = target: T1, Soybean 15-LOX enzyme (Glycine max, UniProt P08170); test: In vitro 15-lipoxygenase inhibition (Cayman Lipoxygenase Inhibitor Screening Assay Kit); type: biochemical; conditions: for IC50: Soybean 15-LOX, arachidonic acid substrate, mean ± SEM of three experiments; for 15-LOX inhibitory activity relative to quercetin: fold that of quercetin
T1 construct: purchased Cayman Chemical 760700
T1 sequence (P08170 1-839): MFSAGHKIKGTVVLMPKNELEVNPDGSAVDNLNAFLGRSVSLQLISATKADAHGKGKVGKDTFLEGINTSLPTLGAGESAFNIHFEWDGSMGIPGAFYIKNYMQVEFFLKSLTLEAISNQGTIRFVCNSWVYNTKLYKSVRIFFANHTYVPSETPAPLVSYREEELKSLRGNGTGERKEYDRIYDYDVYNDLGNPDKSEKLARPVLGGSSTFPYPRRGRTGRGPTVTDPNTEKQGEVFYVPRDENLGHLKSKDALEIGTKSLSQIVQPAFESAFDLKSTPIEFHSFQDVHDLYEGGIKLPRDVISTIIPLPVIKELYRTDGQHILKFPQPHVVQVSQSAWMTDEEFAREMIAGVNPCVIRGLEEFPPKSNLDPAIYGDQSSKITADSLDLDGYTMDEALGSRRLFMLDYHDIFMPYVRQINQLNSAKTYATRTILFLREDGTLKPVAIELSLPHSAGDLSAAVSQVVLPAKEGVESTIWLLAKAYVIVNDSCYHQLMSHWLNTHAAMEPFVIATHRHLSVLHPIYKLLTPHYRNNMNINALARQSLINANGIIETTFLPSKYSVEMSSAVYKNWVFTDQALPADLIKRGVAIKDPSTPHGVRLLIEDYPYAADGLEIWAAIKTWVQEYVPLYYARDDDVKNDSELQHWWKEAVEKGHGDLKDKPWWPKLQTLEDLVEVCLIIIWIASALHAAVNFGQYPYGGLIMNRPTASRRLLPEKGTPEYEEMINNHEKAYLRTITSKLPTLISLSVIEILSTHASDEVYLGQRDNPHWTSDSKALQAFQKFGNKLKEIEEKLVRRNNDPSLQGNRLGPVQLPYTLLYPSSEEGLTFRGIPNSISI
Description: 90 µL of 15-LOX was pipetted into a 96-well plate quickly. The test chemical was then dissolved in DMSO in 10 µL portions at concentrations of 2.5 µM, 5.0 µM, and 10 µM and added to each well. Arachidonic acid, a 110 µL substrate, was added to start the reaction, and the plate was shaken for at least five minutes. In order to interrupt enzyme catalysis and advance the reaction, 100 µL of chromogen was added to each well and made in accordance with the manufacturer’s instructions. In blank wells, 100 µL of assay buffer (0.1 M Tris-HCl, pH 7.4) was utilized. […] The solution’s absorbance was determined at λ 490–500 nm. The percentage inhibition was calculated according to the following equation:% inhibition = [(IA − Ainhibitor sample)/IA] × 100(1) where (IA) is the 100% initial activity and (Ainhibitor sample) is the absorbance of the test sample. A dose-response curve was plotted between % inhibition and the drug concentration. The non-linear dose-response curve was used for calculating drug concentration showing 50% enzyme inhibition.

[1] = Lipid peroxidation assay (FeCl2/H2O2-stimulated linoleic acid peroxidation); type: biochemical; conditions: mean ± SEM of three experiments
[2] = DPPH radical scavenging assay; type: biochemical; conditions: mean ± SEM of three experiments
Description: The antioxidant potential of all target compounds (3–9) was determined using DPPH radical scavenging assay in comparison with ascorbic acid (AA) as the control treatment.
The mechanism of antioxidants as DPPH radical scavengers is based on their hydrogen-donation ability as hydrogen atoms or an electron transfer from the compound to the DPPH to form DPPH-H. The results of DPPH reduction are presented in Table 2, Figure 7.
The DPPH scavenging activity of all novel synthesized compounds (3–9) was measured as previously described (see Supplementary Materials).
1-Biological Evaluation Details: a-In-vitro Assays for biological antioxidant Activity
- DPPH scavenging method.
A 96-well plate was filled with 100 µL of the investigated compounds at various concentrations (12.5, 25, 50, 100, and 200 µg/mL ). The plate was then incubated at room temperature for 30 min while being protected from light by adding 100 µL of 100µM DPPH methanolic solution to each well. At a λ517 nm. the solution's absorbance was measured.
The positive control was ascorbic acid, and the negative control was DMSO. According to the following equation, the percentage of DPPH scavenging activity was determined:
% of DPPH scavenging = [(A control -A sample) / A control] x100. where A control is the absorbance of the control reaction (with all reagents except the test compound), and A sample is the absorbance of the test sample. Linear regression analysis was performed to calculate drug concentration showing 50% free radical inhibition activity (IC50). All tests were performed in triplicates. […]

[3] = Hydrogen peroxide scavenging assay; type: biochemical; conditions: mean ± SEM of three experiments
Description: H2O2 assay is used to estimate the scavenging power of the target compounds (4–9) to H2O2.
The hydrogen peroxide (H2O2) scavenging activity of all novel synthesized compounds 3–9 was measured as previously reported (see Supplementary Materials).
1-Biological Evaluation Details: a-In-vitro Assays for biological antioxidant Activity […]
Linear regression analysis was performed to calculate drug concentration showing 50% free radical inhibition activity (IC50). All tests were performed in triplicates.
-Scavenging of hydrogen peroxide
In this method, the decay or loss of hydrogen peroxide can be quantified spectrophotometrically at 230 nm when a scavenger is incubated with it. The procedure was applied with a few changes. In phosphate buffered saline, hydrogen […]
peroxide (20 mM) solution was prepared in phosphate buffered saline (PBS, pH 7.4). In order to make different concentrations of 1 ml of the tested substances (3–9) or standards in methanol, 2 ml of hydrogen peroxide solution in PBS was added. After 10 minutes, the absorbance of H2O2 was measured at 230 nm in comparison to an ascorbic acid (AA) reference solution that contained phosphate buffer but no H2O2.
% of H2O2 scavenging = [(A control -A sample) / A control] x100. […]

[4] = design: method as in PMID 23248677; conditions: cited from earlier work
human 15-LOX = conditions: cited from earlier work
15-LOX-1 [5] = test system: 15-LOX-1; design: method as in PMID 26560362; conditions: human; cited from earlier work
15-LOX-1 [6] = test system: 15-LOX-1; design: method as in PMID 26560362; conditions: cited from earlier work
15-LOX-1 [7] = test system: 15-LOX-1; design: method as in PMID 26560362; conditions: rabbit enzyme; cited from earlier work

Compound | IC50 (Soybean 15-LOX enzyme) [µM] | Lipid Peroxidation IC50 [1] [µg/mL] | melting point [°C] | DPPH IC50 [2] [µg/mL] | H2O2 IC50 [3] [µg/mL] | also measured
Cc1cccc(-c2cc(-c3cccc(NS(=O)(=O)c4c[nH]c(=S)[nH]c4=O)c3)[nH]c(=O)c2C#N)c1 [Compound 6d, N-{3-[5-cyano-4-(3-methylphenyl)-6-oxo-1,6-dihydropyridin-2-yl]phenyl}-4-oxo-2-thioxo-1,2,3,4-tetrahydropyrimidine-5-sulfonamide] | 7.5 ± 0.04 | 38.0 ± 1.42 | 282 to 284 | 21.0 ± 0.5 | 28.8 ± 1.05 | –
N#Cc1c(-c2cccc([N+](=O)[O-])c2)cc(-c2cccc(NS(=O)(=O)c3c[nH]c(=S)[nH]c3=O)c2)nc1N [Compound 7a, N-{3-[6-amino-5-cyano-4-(3-nitrophenyl)pyridine-2-yl]phenyl}-4-oxo-2-thioxo-1,2,3,4-tetrahydropyrimidine-5-sulfonamides] | 6.95 ± 0.07 | 37.6 ± 1.2 | 251 to 253 | 25.5 ± 1.16 | 26.0 ± 1.28 | –
N#Cc1c(-c2cccc(Cl)c2)cc(-c2cccc(NS(=O)(=O)c3c[nH]c(=S)[nH]c3=O)c2)nc1N [Compound 7b, N-{3-[6-amino-5-cyano-4-(3-chlorophenyl)pyridine-2-yl]phenyl}-4-oxo-2-thioxo-1,2,3,4-tetrahydropyrimidine-5-sulfonamides] | 6.7 ± 0.01 | 37.3 ± 1.3 | 257 to 259 | 19.50 ± 1.06 | 25.0 ± 1.35 | –
N#Cc1c(-c2cccc(F)c2)cc(-c2cccc(NS(=O)(=O)c3c[nH]c(=S)[nH]c3=O)c2)nc1N [Compound 7c, N-{3-[6-amino-5-cyano-4-(3-fluorophenyl)pyridine-2-yl]phenyl}-4-oxo-2-thioxo-1,2,3,4-tetrahydropyrimidine-5-sulfonamides] | 6.91 ± 0.02 | 36.9 ± 1.72 | 268 to 270 | 17.7 ± 1.4 | 24.0 ± 1.40 | –
Cc1cccc(-c2cc(-c3cccc(NS(=O)(=O)c4c[nH]c(=S)[nH]c4=O)c3)nc(N)c2C#N)c1 [Compound 7d, N-{3-[6-amino-5-cyano-4-(3-methylphenyl)pyridine-2-yl]phenyl}-4-oxo-2-thioxo-1,2,3,4-tetrahydropyrimidine-5-sulfonamides] | 6.6 ± 0.05 | 36.4 ± 1.33 | 264 to 266 | 17.0 ± 1.63 | 23.9 ± 1.34 | –
O=c1[nH]c(=S)[nH]cc1S(=O)(=O)Nc1cccc(-c2csc(NN=Cc3cccc([N+](=O)[O-])c3)n2)c1 [Compound 9a, N-(3-{2-[(2E)-2(3-nitrobenzylidene)hydrazine]-1,3-thiazol-4-yl}phenyl)-4-oxo-thioxo-1,2,3,4-tetrahydropyrimidine-5-sulfonamides] | 2.9 ± 0.08 | 22.0 ± 1.40 | 316 to 318 | 15.0 ± 1.25 | 20.0 ± 1.40 | –
O=c1[nH]c(=S)[nH]cc1S(=O)(=O)Nc1cccc(-c2csc(NN=Cc3cccc(Cl)c3)n2)c1 [Compound 9b, N-(3-{2-[(2E)-2(3-chlorobenzylidene)hydrazine]-1,3-thiazol-4-yl}phenyl)-4-oxo-thioxo-1,2,3,4-tetrahydropyrimidine-5-sulfonamides] | 1.8 ± 0.06 | 21.0 ± 1.45 | 320 to 322 | 11.9 ± 1.40 | 18.0 ± 0.72 | 15-LOX inhibitory activity relative to quercetin (Soybean 15-LOX enzyme): 2.0 fold
O=c1[nH]c(=S)[nH]cc1S(=O)(=O)Nc1cccc(-c2csc(NN=Cc3cccc(F)c3)n2)c1 [Compound 9c, N-(3-{2-[(2E)-2(3-fluorobenzylidene)hydrazine]-1,3-thiazol-4-yl}phenyl)-4-oxo-thioxo-1,2,3,4-tetrahydropyrimidine-5-sulfonamides] | 1.95 ± 0.06 | 20.5 ± 1.48 | 317 to 319 | 10.0 ± 0.83 | 16.0 ± 1.20 | 15-LOX inhibitory activity relative to quercetin (Soybean 15-LOX enzyme): 1.84 fold
Cc1cccc(C=NNc2nc(-c3cccc(NS(=O)(=O)c4c[nH]c(=S)[nH]c4=O)c3)cs2)c1 [Compound 9d, N-(3-{2-[(2E)-2(3-methylbenzylidene)hydrazine]-1,3-thiazol-4-yl}phenyl)-4-oxo-thioxo-1,2,3,4-tetrahydropyrimidine-5-sulfonamides] | 2.5 ± 0.03 | 20.0 ± 1.56 | 326 to 328 | 7.55 ± 1.70 | 15.0 ± 0.89 | –
CC1=C(C(=O)OC(C)C)C(c2ccco2)NC(=S)N1 (centres unmarked) [XII] | – | – | – | – | – | antioxidant activity IC50 [4]: 600 µg/mL
COc1ccc(-c2cc3cc(F)c(F)cc3[nH]2)cc1NS(=O)(=O)c1cccs1 [XIV] | – | – | – | – | – | IC50 (human 15-LOX; read-out: 15-LOX IC50): 0.007 µM
O=c1c2cnc(N3CCOCC3)nc2sn1CCN1CCCCC1 [XIX] | – | – | – | – | – | IC50 (15-LOX-1 [5]): 0.12 µM
c1csc(C2CSC(c3nc4ccccc4[nH]3)=N2)c1 (centres unmarked) [XVIII] | – | – | – | – | – | IC50 (15-LOX-1 [6]): 0.096 µM
COc1ccc(-c2cc3cc(F)c(F)cc3[nH]2)cc1NC(=S)Nc1cccc(C(=O)O)c1 [XVII] | – | – | – | – | – | IC50 (15-LOX-1 [7]): 0.002 µM
O=S(=O)(Nc1cccc(-c2nc3cccnc3[nH]2)c1)c1cccs1 [XVI] | – | – | – | – | – | IC50 (human 15-LOX; read-out: 15-LOX IC50): 10 µM
CCCCCc1ccc(S(=O)(=O)NCCc2nc(-c3ccccc3)[nH]c2-c2ccc(OC)cc2)cc1 [XV] | – | – | – | – | – | IC50 (human 15-LOX; AA, read-out: 15-LOX IC50 (AA)): 0.05 µM; IC50 (human 15-LOX; LA, read-out: 15-LOX IC50 (LA)): 0.017 µM
O=C(O)c1cc(O)c(O)c(O)c1 [gallic acid] | – | – | – | – | – | antioxidant activity IC50 [4]: 0.8 µg/mL
